PubChem BioAssay (NCI)
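Exposure lasted 48 hours, with cells grown in 96-well plates and compounds tested at five concentrations. The concentration for 50% growth inhibition is given as GI50. TGI marks complete inhibition of growth.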

Legend:
Assay in all cases: NCI tumour cell line growth inhibition, 48 h
[1] = tested on: BT-549 breast
[2] = tested on: 786-0 renal
[3] = tested on: MCF7 breast
[4] = tested on: T-47D breast
[5] = tested on: MDA-MB-231 breast
[6] = tested on: K-562 leukemia
[7] = tested on: CCRF-CEM leukemia
[8] = tested on: SR leukemia
[9] = tested on: HCC-2998 colon
[10] = tested on: OVCAR-3 ovarian
[11] = tested on: MDA-MB-435
[12] = tested on: ACHN renal
[13] = tested on: MALME-3M melanoma
[14] = tested on: SN12C renal
[15] = tested on: HS 578T breast
[16] = tested on: SF-268 CNS
[17] = tested on: PC-3 prostate
[18] = tested on: MOLT-4 leukemia
[19] = tested on: CAKI-1 renal
[20] = tested on: HOP-62 NSCLC
[21] = tested on: IGROV1 ovarian
[22] = tested on: HOP-92 NSCLC
[23] = tested on: COLO 205 colon
[24] = tested on: SK-MEL-2 melanoma
[25] = tested on: HL-60(TB) leukemia
[26] = tested on: NCI-H460 lung
[27] = tested on: NCI-H522 lung
[28] = tested on: SNB-19 CNS
[29] = tested on: NCI/ADR-RES ovarian
[30] = tested on: OVCAR-4 ovarian
[31] = tested on: SW-620 colon
[32] = tested on: OVCAR-8 ovarian
[33] = tested on: A549 NSCLC
[34] = tested on: RXF 393 renal
[35] = tested on: LOX IMVI melanoma
[36] = tested on: SF-295 CNS
[37] = tested on: SK-MEL-28 melanoma
[38] = tested on: OVCAR-5 ovarian
[39] = tested on: HCT-116 colon
[40] = tested on: KM12 colon
[41] = tested on: DU-145 prostate
[42] = tested on: SK-OV-3 ovarian
[43] = tested on: UACC-62 melanoma
[44] = tested on: TK-10 renal
[45] = tested on: UACC-257 melanoma
[46] = tested on: NCI-H226 lung
[47] = tested on: HT29 colon
[48] = tested on: A498 renal
[49] = tested on: U251 CNS
[50] = tested on: SF-539 CNS
[51] = tested on: MDA-MB-468 breast
[52] = tested on: EKVX NSCLC
[53] = tested on: HCT-15 colon
[54] = tested on: SK-MEL-5 melanoma
[55] = tested on: NCI-H23 lung
[56] = tested on: SNB-75 CNS
[57] = tested on: UO-31 renal
[58] = tested on: M14 melanoma

CCCn1c(=O)c2[nH]c(-c3ccc(OCc4nc5ccccc5[nH]4)cc3)nc2n(CCC)c1=O
GI50 [1]: 8.41 µM | TGI [1]: 45.5 µM | GI50 [2]: 2.83 µM | TGI [2]: 10.6 µM | GI50 [3]: 3.32 µM | TGI [3]: 18.6 µM | GI50 [4]: 27.9 µM | TGI [4]: > 100 µM | GI50 [5]: 3.37 µM | TGI [5]: 12.6 µM | GI50 [6]: > 100 µM | TGI [6]: > 100 µM | GI50 [7]: > 100 µM | TGI [7]: > 100 µM | GI50 [8]: > 100 µM | TGI [8]: > 100 µM | GI50 [9]: 11.9 µM | TGI [9]: > 100 µM | GI50 [10]: 5.46 µM | TGI [10]: 23.4 µM | GI50 [11]: 13 µM | TGI [11]: > 100 µM | GI50 [12]: 5 µM | TGI [12]: 24.9 µM | GI50 [13]: 3.43 µM | TGI [13]: 16.4 µM | GI50 [14]: 9.67 µM | TGI [14]: 45.7 µM | GI50 [15]: 2.3 µM | TGI [15]: 7.76 µM | GI50 [16]: 9.2 µM | TGI [16]: 38.8 µM | GI50 [17]: 17.6 µM | TGI [17]: > 100 µM | GI50 [18]: > 100 µM | TGI [18]: > 100 µM | GI50 [19]: 2.95 µM | TGI [19]: 11.9 µM | GI50 [20]: 8.39 µM | TGI [20]: 24.3 µM | GI50 [21]: 15.3 µM | TGI [21]: 42.8 µM | GI50 [22]: 5.18 µM | TGI [22]: 25.3 µM | GI50 [23]: > 100 µM | TGI [23]: > 100 µM | GI50 [24]: 17.6 µM | TGI [24]: 34.4 µM | GI50 [25]: > 100 µM | TGI [25]: > 100 µM | GI50 [26]: 3.7 µM | TGI [26]: 15.1 µM | GI50 [27]: 11.3 µM | TGI [27]: 34.3 µM | GI50 [28]: 13.9 µM | TGI [28]: 33.1 µM | GI50 [29]: 19.2 µM | TGI [29]: > 100 µM | GI50 [30]: 2.99 µM | TGI [30]: 53 µM | GI50 [31]: 18 µM | TGI [31]: > 100 µM | GI50 [32]: 8.28 µM | TGI [32]: 45.4 µM | GI50 [33]: 5.92 µM | TGI [33]: > 100 µM | GI50 [34]: 2.06 µM | TGI [34]: 6.94 µM | GI50 [35]: 3.47 µM | TGI [35]: 14.7 µM | GI50 [36]: 3.04 µM | TGI [36]: 13.3 µM | GI50 [37]: 33.5 µM | TGI [37]: > 100 µM | GI50 [38]: 46.5 µM | TGI [38]: > 100 µM | GI50 [39]: 3.94 µM | TGI [39]: > 100 µM | GI50 [40]: > 100 µM | TGI [40]: > 100 µM | TGI [41]: > 100 µM | GI50 [42]: 15 µM | TGI [42]: 32 µM | GI50 [43]: 12 µM | TGI [43]: 28.8 µM | GI50 [44]: 6.89 µM | TGI [44]: 22.2 µM | GI50 [45]: 48 µM | TGI [45]: > 100 µM | GI50 [46]: 2.4 µM | TGI [46]: 7.25 µM | GI50 [47]: 13.2 µM | TGI [47]: > 100 µM | GI50 [48]: 14.3 µM | TGI [48]: 32.3 µM | GI50 [49]: 3.83 µM | TGI [49]: 18.4 µM | GI50 [50]: 2.12 µM | TGI [50]: 5.25 µM | GI50 [51]: 3.13 µM | TGI [51]: 16.1 µM | GI50 [52]: 23.5 µM | TGI [52]: > 100 µM | GI50 [53]: 31.9 µM | TGI [53]: > 100 µM | GI50 [54]: 4.05 µM | TGI [54]: 28 µM | GI50 [55]: 5.95 µM | TGI [55]: 18.1 µM | GI50 [56]: 1.63 µM | TGI [56]: 5.21 µM | GI50 [57]: 14.5 µM | TGI [57]: 43.4 µM | GI50 [58]: 26.2 µM | TGI [58]: > 100 µM
